Results taken from PubChem BioAssay (NCI).
Values joined by “and” are separate entries in the source; they are usually repeats but may differ in a detail not shown here. Equal entries are not always repeated.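 Interpolation was linear, between the two tested concentrations surrounding the appropriate level; five concentrations were tested over 48 hours in 96-well plates. GI50 marks 50% less growth. TGI denotes the concentration required for complete inhibition of growth.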

How the values were obtained:
Assay in all cases: inhibition of tumour cell growth, NCI panel, 48 h
[1] = test system: HT29 colon
[2] = test system: HL-60(TB) leukemia
[3] = test system: CAKI-1 renal
[4] = test system: SF-268 CNS
[5] = test system: HCT-116 colon
[6] = test system: UACC-257 melanoma
[7] = test system: U251 CNS
[8] = test system: DLD-1 colon
[9] = test system: SW-620 colon
[10] = test system: MOLT-4 leukemia

Structure (SMILES) | TGI [1] [µM] | TGI [2] | TGI [3] [µM] | TGI [4] [µM] | TGI [5] | TGI [6] | TGI [7] | TGI [8] [µM] | TGI [9] [µM] | TGI [10] [µM] | GI50 [1] | GI50 [3] [µM] | GI50 [4] [µM] | GI50 [5] | GI50 [6] [µM] | GI50 [7] [µM] | GI50 [9] [µM] | GI50 [10] [µM]
CCOC(=O)C12C(C(=O)OC)=C(C)N(NC(=O)Nc3ccccc3)C1(N)N(NC(=O)Nc1ccccc1)C(C)=C2C(=O)OC (configuration not stated) | 52.9 | 48.8 µM | > 100 | > 86.7 | 59.4 µM | 62.9 µM | 35.8 µM | > 100 | > 100 | 46.7 | – | – | – | – | – | – | – | –
Cc1nc(N)nc(N)c1CCCc1ccccc1 | > 100 | 71.7 µM | > 100 | > 100 | > 100 µM | > 100 µM | > 100 µM | > 100 | > 100 | > 100 | – | – | – | – | – | – | – | –
CCC1(OC(=O)CN)C(=O)OCc2c1cc1n(c2=O)Cc2cc3ccccc3nc2-1 (configuration not stated) | > 100 | 0.084 µM and < 0.0132 µM | – | 14.2 | 0.265 µM and 0.431 µM | 0.721 µM and 0.545 µM | 0.333 µM and 0.636 µM | > 100 | > 100 | 0.0305 | 0.111 µM and 0.0374 µM | 0.00739 | 0.00689 | 0.0519 µM and 0.0222 µM | 0.0859 | 0.0118 | 0.0448 | 0.00396
N#CC(C#N)=Cc1ccc(CP(=O)(O)O)cc1 | > 100 | > 100 µM | > 100 | > 100 | > 100 µM | > 100 µM | > 100 µM | > 100 | > 100 | > 100 | – | – | – | – | – | – | – | –
COc1ccc2c(c1)NC1(O)c3ccccc3C(=O)C21O (configuration not stated) | > 100 | > 100 µM | > 100 | > 100 | > 100 µM | > 100 µM | > 100 µM | > 100 | > 100 | > 100 | – | – | – | – | – | – | – | –
Cc1ccc(S(=O)(=O)c2ccc(C)cc2[N+](=O)[O-])cc1 | > 100 | > 100 µM | > 100 | > 100 | > 100 µM | > 100 µM | > 100 µM | > 100 | > 100 | > 100 | – | – | – | – | – | – | – | –
CC(C)(C)N/N=C(\C(=O)Nc1nc(=S)[nH][nH]1)C1C(=O)Nc2ccccc2S1=O (configuration not stated) | > 100 | > 100 µM | > 100 | > 100 | > 100 µM | > 100 µM | > 100 µM | > 100 | > 100 | > 100 | – | – | – | – | – | – | – | –
